Test: Radiochemical purity by iTLC over time after radiolabelling
Format: physicochemical
Description: Table 1 to Table 5 show the results of various radiolabelling experiments on radiochemical purity and the chelation yield. The radiolabelling experiments in the tables are carried out as described in: • Example 1 for when the gallium-68 source is GE Liquid target generator and EZAG GalliaPharm generator; • Example 2 for when the gallium-68 source is IRE Galli Eo generator; • Example 3 for when the gallium-68 source is GE solid target generator;
However, the experiments were carried out with the amount of ascorbic acid as indicated in the Tables 1 to 5, and the activity as indicated in the Tables 1 to 5. Radiochemical purities were measured at various times (T0, T1, T4, T6) after the radiolabelled experiments have been conducted.
The kits of Example 1, Example 2 or Example 3, with amounts of ascorbic acid as set out in Table 7 were used in the experiments for the ascorbic acid bracketing matrix. Three strengths of [^68Ga]Ga-PSMA-11 will be tested, i.e. 50 mCi/ml, 7 mCi/ml and 1 mCi/ml. Radiochemical purity was determined at different time points (TO, T1, T4 or T6), as set out in Table 7.

[1] = 25 mg ascorbic acid, 46.0-46.1 mCi, 4.38-4.39 mCi/mL, EZAG GalliaPharm, average of 2, T4 (4 h)
[2] = 25 mg ascorbic acid, 46.0-46.1 mCi, 4.38-4.39 mCi/mL, EZAG GalliaPharm, n=2, T0
[3] = 25 mg ascorbic acid, 46.0-46.1 mCi, 4.38-4.39 mCi/mL, EZAG GalliaPharm, n=2, T4 (4 h)
[4] = bracketing ~1 mCi/mL, 18.75 mg ascorbic acid, 8.9-11.5 mCi, 0.85-1.09 mCi/mL, IRE Galli Eo, average of 2, T0
[5] = bracketing ~1 mCi/mL, 18.75 mg ascorbic acid, 8.9-11.5 mCi, 0.85-1.09 mCi/mL, IRE Galli Eo, average of 2, T1 (1 h)
[6] = bracketing ~1 mCi/mL, 25 mg ascorbic acid, 8.8-12.7 mCi, 0.84-1.21 mCi/mL, 2 × IRE Galli Eo, average of 2, T0
[7] = bracketing ~1 mCi/mL, 25 mg ascorbic acid, 8.8-12.7 mCi, 0.84-1.21 mCi/mL, 2 × IRE Galli Eo, average of 2, T1 (1 h)
[8] = bracketing ~1 mCi/mL, 31.25 mg ascorbic acid, 15.2-26.9 mCi, 1.44-2.54 mCi/mL, EZAG GalliaPharm, average of 2, T0
[9] = bracketing ~1 mCi/mL, 31.25 mg ascorbic acid, 15.2-26.9 mCi, 1.44-2.54 mCi/mL, EZAG GalliaPharm, average of 2, T1 (1 h)
[10] = bracketing ~7 mCi/mL, 18.75 mg ascorbic acid, 51.0-58.0 mCi, 5.55-6.5 mCi/mL, IRE Galli Eo, average of 2, T0
[11] = bracketing ~7 mCi/mL, 18.75 mg ascorbic acid, 51.0-58.0 mCi, 5.55-6.5 mCi/mL, IRE Galli Eo, average of 2, T4 (4 h)
[12] = bracketing ~7 mCi/mL, 25 mg ascorbic acid, 51.6-74.4 mCi, 4.56-6.92 mCi/mL, 3 × GE Liquid Target, 3 × IRE Galli Eo, 3 × EZAG GalliaPharm, average of 9, T0
[13] = bracketing ~7 mCi/mL, 25 mg ascorbic acid, 51.6-74.4 mCi, 4.56-6.92 mCi/mL, 3 × GE Liquid Target, 3 × IRE Galli Eo, 3 × EZAG GalliaPharm, average of 9, T4 (4 h)
[14] = bracketing ~7 mCi/mL, 31.25 mg ascorbic acid, 61.5-62.0 mCi, 5.85-5.88 mCi/mL, EZAG GalliaPharm, average of 2, T0
[15] = bracketing ~7 mCi/mL, 31.25 mg ascorbic acid, 61.5-62.0 mCi, 5.85-5.88 mCi/mL, EZAG GalliaPharm, average of 2, T4 (4 h)
[16] = bracketing ~50 mCi/mL, 20 mg ascorbic acid, 514-544 mCi, 48.3-51.9 mCi/mL, GE Solid Target, average of 2, T0
[17] = bracketing ~50 mCi/mL, 20 mg ascorbic acid, 514-544 mCi, 48.3-51.9 mCi/mL, GE Solid Target, average of 2, T6 (6 h)
[18] = bracketing ~50 mCi/mL, 25 mg ascorbic acid, 537-551 mCi, 50.2-51.6 mCi/mL, GE Solid Target, average of 3, T0
[19] = bracketing ~50 mCi/mL, 25 mg ascorbic acid, 537-551 mCi, 50.2-51.6 mCi/mL, GE Solid Target, average of 3, T6 (6 h)
[20] = bracketing ~50 mCi/mL, 31.25 mg ascorbic acid, 500-544 mCi, 48.1-51.7 mCi/mL, GE Solid Target, average of 2, T0

## O=C([O-])CN(CCN(CC(=O)[O-])Cc1cc(CCC(=O)NCCCCCC(=O)NCCCC[C@H](NC(=O)N[C@@H](CCC(=O)O)C(=O)O)C(=O)O)ccc1[O-])Cc1cc(CCC(=O)O)ccc1[O-].[68Ga+3].[OH3+] [[^68Ga]PSMA-11, gallium-68 radiolabelled Glu-urea-Lys-HBED-CC (gozetotide or PSMA-11)]
[1]
  Radiochemical Purity (iTLC) Free and Colloidal Ga-68 (%): 0%
  Radiochemical Purity (iTLC) Ga-68 PSMA-11 (%): 100%
[2]
  Radiochemical Purity (iTLC) Free and Colloidal Ga-68 (%): C (C = all results conform to specifications)
  Radiochemical Purity (iTLC) Ga-68 PSMA-11 (%): C (C = all results conform to specifications)
[3]
  Radiochemical Purity (iTLC) Free and Colloidal Ga-68 (%): C (C = all results conform to specifications)
  Radiochemical Purity (iTLC) Ga-68 PSMA-11 (%): C (C = all results conform to specifications)
[4]
  Radiochemical Purity (iTLC) Free and Colloidal Ga-68 (%): 0%
  Radiochemical Purity (iTLC) Ga-68 PSMA-11 (%): 100%
[5]
  Radiochemical Purity (iTLC) Free and Colloidal Ga-68 (%): 0%
  Radiochemical Purity (iTLC) Ga-68 PSMA-11 (%): 100%
[6]
  Radiochemical Purity (iTLC) Free and Colloidal Ga-68 (%): 0%
  Radiochemical Purity (iTLC) Ga-68 PSMA-11 (%): 100%
[7]
  Radiochemical Purity (iTLC) Free and Colloidal Ga-68 (%): 0%
  Radiochemical Purity (iTLC) Ga-68 PSMA-11 (%): 100%
[8]
  Radiochemical Purity (iTLC) Free and Colloidal Ga-68 (%): 0%
  Radiochemical Purity (iTLC) Ga-68 PSMA-11 (%): 100%
[9]
  Radiochemical Purity (iTLC) Free and Colloidal Ga-68 (%): 0%
  Radiochemical Purity (iTLC) Ga-68 PSMA-11 (%): 100%
[10]
  Radiochemical Purity (iTLC) Free and Colloidal Ga-68 (%): 0%
  Radiochemical Purity (iTLC) Ga-68 PSMA-11 (%): 100%
[11]
  Radiochemical Purity (iTLC) Free and Colloidal Ga-68 (%): 0%
  Radiochemical Purity (iTLC) Ga-68 PSMA-11 (%): 100%
[12]
  Radiochemical Purity (iTLC) Free and Colloidal Ga-68 (%): 0%
  Radiochemical Purity (iTLC) Ga-68 PSMA-11 (%): 100%
[13]
  Radiochemical Purity (iTLC) Free and Colloidal Ga-68 (%): 1%
  Radiochemical Purity (iTLC) Ga-68 PSMA-11 (%): 99%
[14]
  Radiochemical Purity (iTLC) Free and Colloidal Ga-68 (%): 0%
  Radiochemical Purity (iTLC) Ga-68 PSMA-11 (%): 100%
[15]
  Radiochemical Purity (iTLC) Free and Colloidal Ga-68 (%): 0%
  Radiochemical Purity (iTLC) Ga-68 PSMA-11 (%): 100%
[16]
  Radiochemical Purity (iTLC) Free and Colloidal Ga-68 (%): 3%
  Radiochemical Purity (iTLC) Ga-68 PSMA-11 (%): 97%
[17]
  Radiochemical Purity (iTLC) Free and Colloidal Ga-68 (%): 2%
  Radiochemical Purity (iTLC) Ga-68 PSMA-11 (%): 98%
[18]
  Radiochemical Purity (iTLC) Free and Colloidal Ga-68 (%): 0%
  Radiochemical Purity (iTLC) Ga-68 PSMA-11 (%): 100%
[19]
  Radiochemical Purity (iTLC) Free and Colloidal Ga-68 (%): 1%
  Radiochemical Purity (iTLC) Ga-68 PSMA-11 (%): 99%
[20]
  Radiochemical Purity (iTLC) Free and Colloidal Ga-68 (%): 1%
  Radiochemical Purity (iTLC) Ga-68 PSMA-11 (%): 99%
Bracketing ~50 mCi/mL, 31.25 mg ascorbic acid, 500-544 mCi, 48.1-51.7 mCi/mL, GE Solid Target, average of 2, T6 (6 h)
  Radiochemical Purity (iTLC) Free and Colloidal Ga-68 (%): 1%
